Assays:
oval-leafed pondweed [1] = experiment: Test Example 2: herbicidal activity, application during weed generation under submerged conditions (Table 17, symbol C); assay type: in vivo, oval-leafed pondweed (Monochoria vaginalis); conditions: AAH 320 g/ha; application during weed generation, submerged conditions
Method in brief: (§1)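 Mixed weed seedlings in alluvial soil under a 4 cm water layer, greenhouse-grown at 25–30° C. Compound given as a diluted emulsion into the floodwater at the 1–2 leaf stage; response graded after three weeks.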

barnyard grass [2] = experiment: Test Example 3: herbicidal effect by foliage application, Wagner pot (Table 18, symbol H); assay type: in vivo, barnyard grass (Echinochloa crus-galli); conditions: 320 g/ha
Method in brief: (§2)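 Plants were sown in alluvial soil held under 0.1–0.5 cm standing water and grown 14 days in a greenhouse at 25–30 °C. An emulsifiable formulation, water-diluted to the set dose, was then sprayed onto the foliage, and effects were scored three weeks later using previously defined criteria.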

Italian ryegrass [3] = experiment: Test Example 4: herbicidal effect by soil treatment (Table 19, symbol K); assay type: in vivo, Italian ryegrass (Lolium multiflorum); conditions: 320 g/ha
Method in brief: (§3)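 Seeds were sown in sterilized diluvial soil and covered with about 1.5 cm of soil. An emulsion formulation diluted with water to a predetermined herbicide amount was sprayed evenly onto the soil surface. Plants grew in a greenhouse at 25° C. to 30° C., and the effect was scored three weeks after application using criteria from an earlier test.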

velvetleaf [4] = experiment: Test Example 4: herbicidal effect by soil treatment (Table 19, symbol M); assay type: in vivo, velvetleaf (Abutilon theophrasti); conditions: 320 g/ha
Method in brief: as §3

green foxtail [5] = experiment: Test Example 4: herbicidal effect by soil treatment (Table 19, symbol G); assay type: in vivo, green foxtail (Setaria viridis); conditions: 320 g/ha
Method in brief: as §3

lambsquarters [6] = experiment: Test Example 5: herbicidal effect by foliage application, plastic box (Table 20, symbol O); assay type: in vivo, lambsquarters (Chenopodium album); conditions: foliage application, 320 g/ha
Method in brief: (§4)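 Plants sown in sterilized diluvial soil and grown 14 days in a greenhouse at 25° C to 30° C, then sprayed on the foliage with the compound's emulsion diluted in water to a predetermined herbicide amount. Injury to weeds and crops scored three weeks after application on a visual rating scale.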

windgrass [7] = experiment: Test Example 4: herbicidal effect by soil treatment (Table 19, symbol L); assay type: in vivo, windgrass (Apera spica-venti); conditions: 320 g/ha
Method in brief: as §3

Chinese sprangletop = experiment: Test Example 3: herbicidal effect by foliage application, Wagner pot (Table 18, symbol D); assay type: in vivo, chinese sprangletop (Leptochloa chinensis); conditions: 320 g/ha
Method in brief: as §2

blackgrass [8] = experiment: Test Example 5: herbicidal effect by foliage application, plastic box (Table 20, symbol J); assay type: in vivo, blackgrass (Alopecurus myosuroides); conditions: foliage application, 320 g/ha
Method in brief: as §4

persian speedwell [9] = experiment: Test Example 4: herbicidal effect by soil treatment (Table 19, symbol R); assay type: in vivo, Persian speedwell (Veronica persica); conditions: 320 g/ha
Method in brief: as §3

persian speedwell [10] = experiment: Test Example 5: herbicidal effect by foliage application, plastic box (Table 20, symbol R); assay type: in vivo, Persian speedwell (Veronica persica); conditions: foliage application, 320 g/ha
Method in brief: as §4

lambsquarters [11] = experiment: Test Example 4: herbicidal effect by soil treatment (Table 19, symbol O); assay type: in vivo, lambsquarters (Chenopodium album); conditions: 320 g/ha
Method in brief: as §3

Italian ryegrass [12] = experiment: Test Example 5: herbicidal effect by foliage application, plastic box (Table 20, symbol K); assay type: in vivo, Italian ryegrass (Lolium multiflorum); conditions: foliage application, 320 g/ha
Method in brief: as §4

rice flat sedge = experiment: Test Example 3: herbicidal effect by foliage application, Wagner pot (Table 18, symbol E); assay type: in vivo, rice flat sedge (Cyperus iria); conditions: 320 g/ha
Method in brief: as §2

barnyard grass [13] = experiment: Test Example 4: herbicidal effect by soil treatment (Table 19, symbol H); assay type: in vivo, barnyard grass (Echinochloa crus-galli); conditions: 320 g/ha
Method in brief: as §3

wild oat [14] = experiment: Test Example 4: herbicidal effect by soil treatment (Table 19, symbol I); assay type: in vivo, wild oat (Avena fatua); conditions: 320 g/ha
Method in brief: as §3

chickweed [15] = experiment: Test Example 4: herbicidal effect by soil treatment (Table 19, symbol P); assay type: in vivo, common chickweed (Stellaria media); conditions: 320 g/ha
Method in brief: as §3

blackgrass [16] = experiment: Test Example 4: herbicidal effect by soil treatment (Table 19, symbol J); assay type: in vivo, blackgrass (Alopecurus myosuroides); conditions: 320 g/ha
Method in brief: as §3

southern crabgrass [17] = experiment: Test Example 5: herbicidal effect by foliage application, plastic box (Table 20, symbol F); assay type: in vivo, southern crabgrass (Digitaria ciliaris); conditions: foliage application, 320 g/ha
Method in brief: as §4

windgrass [18] = experiment: Test Example 5: herbicidal effect by foliage application, plastic box (Table 20, symbol L); assay type: in vivo, windgrass (Apera spica-venti); conditions: foliage application, 320 g/ha
Method in brief: as §4

redroot pigweed [19] = experiment: Test Example 4: herbicidal effect by soil treatment (Table 19, symbol N); assay type: in vivo, redroot pigweed (Amaranthus retroflexus); conditions: 320 g/ha
Method in brief: as §3

wild oat [20] = experiment: Test Example 5: herbicidal effect by foliage application, plastic box (Table 20, symbol I); assay type: in vivo, wild oat (Avena fatua); conditions: foliage application, 320 g/ha
Method in brief: as §4

velvetleaf [21] = experiment: Test Example 5: herbicidal effect by foliage application, plastic box (Table 20, symbol M); assay type: in vivo, velvetleaf (Abutilon theophrasti); conditions: foliage application, 320 g/ha
Method in brief: as §4

false cleavers = experiment: Test Example 5: herbicidal effect by foliage application, plastic box (Table 20, symbol Q); assay type: in vivo, false cleavers (Galium spurium); conditions: foliage application, 320 g/ha
Method in brief: as §4

green foxtail [22] = experiment: Test Example 5: herbicidal effect by foliage application, plastic box (Table 20, symbol G); assay type: in vivo, green foxtail (Setaria viridis); conditions: foliage application, 320 g/ha
Method in brief: as §4

late watergrass [23] = experiment: Test Example 2: herbicidal activity, application during weed generation under submerged conditions (Table 17, symbol A); assay type: in vivo, late watergrass (Echinochloa oryzicola); conditions: AAH 320 g/ha; application during weed generation, submerged conditions
Method in brief: as §1

Japanese bulrush [24] = experiment: Test Example 2: herbicidal activity, application during weed generation under submerged conditions (Table 17, symbol B); assay type: in vivo, Japanese bulrush (Schoenoplectus juncoides); conditions: AAH 320 g/ha; application during weed generation, submerged conditions
Method in brief: as §1

southern crabgrass [25] = experiment: Test Example 4: herbicidal effect by soil treatment (Table 19, symbol F); assay type: in vivo, southern crabgrass (Digitaria ciliaris); conditions: 320 g/ha
Method in brief: as §3

barnyard grass [26] = experiment: Test Example 5: herbicidal effect by foliage application, plastic box (Table 20, symbol H); assay type: in vivo, barnyard grass (Echinochloa crus-galli); conditions: foliage application, 320 g/ha
Method in brief: as §4

redroot pigweed [27] = experiment: Test Example 5: herbicidal effect by foliage application, plastic box (Table 20, symbol N); assay type: in vivo, redroot pigweed (Amaranthus retroflexus); conditions: foliage application, 320 g/ha, evaluated three weeks after application
Method in brief: as §4

late watergrass [28] = experiment: Test Example 1: herbicidal activity, application before weed generation under submerged conditions (Table 16, symbol A); assay type: in vivo, late watergrass (Echinochloa oryzicola); conditions: 320 g/ha applied herbicide
Method in brief: (§5)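 Emulsion formulation, water-diluted to set dose, was put onto the flooded surface (4 cm depth, alluvial soil) the same day weeds were sown and 2.5-leaf rice transplanted. After 3 weeks at 25-30 °C under glass, each species was rated 0 (≤5% kill) to 5 (≥90% kill).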

chickweed [29] = experiment: Test Example 5: herbicidal effect by foliage application, plastic box (Table 20, symbol P); assay type: in vivo, common chickweed (Stellaria media); conditions: foliage application, 320 g/ha, evaluated three weeks after application
Method in brief: as §4

oval-leafed pondweed [30] = experiment: Test Example 1: herbicidal activity, application before weed generation under submerged conditions (Table 16, symbol C); assay type: in vivo, oval-leafed pondweed (Monochoria vaginalis); conditions: 320 g/ha applied herbicide
Method in brief: as §5

Japanese bulrush [31] = experiment: Test Example 1: herbicidal activity, application before weed generation under submerged conditions (Table 16, symbol B); assay type: in vivo, Japanese bulrush (Schoenoplectus juncoides); conditions: 320 g/ha applied herbicide
Method in brief: as §5

[32] = evaluated three weeks after application

CCOc1ccccc1-c1sc2ccc(F)cc2c1-c1c(O)c(C)nn(C)c1=O [2-028]
herbicidal effect rating, C: oval-leafed pondweed (oval-leafed pondweed [1]): 3 (Herbicidal rate of 40% or more and less than 70%)
herbicidal effect on H (barnyard grass), rating 0-5 (barnyard grass [2]): 4 (Herbicidal rate of 70% or more and less than 90%)
herbicidal effect rating, K: Italian ryegrass (Italian ryegrass [3]): 0 (Herbicidal rate of 5% or less (almost no effect))
herbicidal effect rating, M: velvetleaf (velvetleaf [4]): 3 (Herbicidal rate of 40% or more and less than 70%)
herbicidal effect rating, G: green foxtail (green foxtail [5]): 2 (Herbicidal rate of 20% or more and less than 40%)
effect on lambsquarters (O) (lambsquarters [6]; 3 weeks after application): 3 (Herbicidal rate of 40% or more and less than 70%)
herbicidal effect rating, L: windgrass (windgrass [7]): 0 (Herbicidal rate of 5% or less (almost no effect))
herbicidal effect on D (Chinese sprangletop), rating 0-5 (Chinese sprangletop): 3 (Herbicidal rate of 40% or more and less than 70%)
effect on blackgrass (J) (blackgrass [8]; 3 weeks after application): 4 (Herbicidal rate of 70% or more and less than 90%)
herbicidal effect rating, R: persian speedwell (persian speedwell [9]): 5 (Herbicidal rate of 90% or more (almost completely withered))
effect on persian speedwell (R) (persian speedwell [10]; 3 weeks after application): 5 (Herbicidal rate of 90% or more (almost completely withered))
herbicidal effect rating, O: lambsquarters (lambsquarters [11]): 3 (Herbicidal rate of 40% or more and less than 70%)
effect on Italian ryegrass (K) (Italian ryegrass [12]; 3 weeks after application): 3 (Herbicidal rate of 40% or more and less than 70%)
herbicidal effect on E (rice flat sedge), rating 0-5 (rice flat sedge): 5 (Herbicidal rate of 90% or more (almost completely withered))
herbicidal effect rating, H: barnyard grass (barnyard grass [13]): 3 (Herbicidal rate of 40% or more and less than 70%)
herbicidal effect rating, I: wild oat (wild oat [14]): 0 (Herbicidal rate of 5% or less (almost no effect))
herbicidal effect rating, P: chickweed (chickweed [15]): 4 (Herbicidal rate of 70% or more and less than 90%)
herbicidal effect rating, J: blackgrass (blackgrass [16]): 0 (Herbicidal rate of 5% or less (almost no effect))
effect on southern crabgrass (F) (southern crabgrass [17]; 3 weeks after application): 3 (Herbicidal rate of 40% or more and less than 70%)
effect on windgrass (L) (windgrass [18]; 3 weeks after application): 4 (Herbicidal rate of 70% or more and less than 90%)
herbicidal effect rating, N: redroot pigweed (redroot pigweed [19]): 5 (Herbicidal rate of 90% or more (almost completely withered))
effect on wild oat (I) (wild oat [20]; 3 weeks after application): 3 (Herbicidal rate of 40% or more and less than 70%)
effect on velvetleaf (M) (velvetleaf [21]; 3 weeks after application): 4 (Herbicidal rate of 70% or more and less than 90%)
effect on false cleavers (Q) (false cleavers; 3 weeks after application): 5 (Herbicidal rate of 90% or more (almost completely withered))
effect on green foxtail (G) (green foxtail [22]; 3 weeks after application): 4 (Herbicidal rate of 70% or more and less than 90%)
herbicidal effect rating, A: late watergrass (late watergrass [23]): 3 (Herbicidal rate of 40% or more and less than 70%)
herbicidal effect rating, B: Japanese bulrush (Japanese bulrush [24]): 1 (Herbicidal rate of 5% or more and less than 20%)
herbicidal effect rating, F: southern crabgrass (southern crabgrass [25]): 3 (Herbicidal rate of 40% or more and less than 70%)
effect on barnyard grass (H) (barnyard grass [26]; 3 weeks after application): 4 (Herbicidal rate of 70% or more and less than 90%)

COCCOCOc1c(C)nn(C)c(=O)c1-c1c(-c2ccc(OCc3ccccc3)cc2)sc2ccc(F)cc12 [2-064]
herbicidal effect rating, C: oval-leafed pondweed (oval-leafed pondweed [1]): 0 (Herbicidal rate of 5% or less (almost no effect))
herbicidal effect on H (barnyard grass), rating 0-5 (barnyard grass [2]): 3 (Herbicidal rate of 40% or more and less than 70%)
herbicidal effect on N: redroot pigweed (redroot pigweed [27]): 5 (Herbicidal rate of 90% or more (almost completely withered))
Herbicidal effect on A: late watergrass (grade 0-5) (late watergrass [28]): 4 (Herbicidal rate of 70% or more and less than 90%)
herbicidal effect on O: lambsquarters (lambsquarters [6]; [32]): 4 (Herbicidal rate of 70% or more and less than 90%)
herbicidal effect on D (Chinese sprangletop), rating 0-5 (Chinese sprangletop): 3 (Herbicidal rate of 40% or more and less than 70%)
herbicidal effect on J: blackgrass (blackgrass [8]; [32]): 0 (Herbicidal rate of 5% or less (almost no effect))
herbicidal effect on R: persian speedwell (persian speedwell [10]; [32]): 4 (Herbicidal rate of 70% or more and less than 90%)
herbicidal effect on K: Italian ryegrass (Italian ryegrass [12]; [32]): 0 (Herbicidal rate of 5% or less (almost no effect))
herbicidal effect on E (rice flat sedge), rating 0-5 (rice flat sedge): 0 (Herbicidal rate of 5% or less (almost no effect))
herbicidal effect on P: chickweed (chickweed [29]): 4 (Herbicidal rate of 70% or more and less than 90%)
Herbicidal effect on C: oval-leafed pondweed (grade 0-5) (oval-leafed pondweed [30]): 3 (Herbicidal rate of 40% or more and less than 70%)
herbicidal effect on F: southern crabgrass (southern crabgrass [17]; [32]): 3 (Herbicidal rate of 40% or more and less than 70%)
herbicidal effect on L: windgrass (windgrass [18]; [32]): 0 (Herbicidal rate of 5% or less (almost no effect))
herbicidal effect on I: wild oat (wild oat [20]; [32]): 0 (Herbicidal rate of 5% or less (almost no effect))
herbicidal effect on M: velvetleaf (velvetleaf [21]; [32]): 3 (Herbicidal rate of 40% or more and less than 70%)
herbicidal effect on Q: false cleavers (false cleavers; [32]): 4 (Herbicidal rate of 70% or more and less than 90%)
Herbicidal effect on B: Japanese bulrush (grade 0-5) (Japanese bulrush [31]): 4 (Herbicidal rate of 70% or more and less than 90%)
herbicidal effect on G: green foxtail (green foxtail [22]; [32]): 3 (Herbicidal rate of 40% or more and less than 70%)
herbicidal effect rating, A: late watergrass (late watergrass [23]): 3 (Herbicidal rate of 40% or more and less than 70%)
herbicidal effect rating, B: Japanese bulrush (Japanese bulrush [24]): 3 (Herbicidal rate of 40% or more and less than 70%)
herbicidal effect on H: barnyard grass (barnyard grass [26]; [32]): 3 (Herbicidal rate of 40% or more and less than 70%)

From patent US20230085307A1, “PYRIDAZINONE COMPOUND AND HERBICIDE” (NISSAN CHEMICAL CORPORATION, priority 2019, published 2023)
